Drawing on patent US8895740B2, “Pyrazolopyrazine kinase inhibitors” (Vertex Pharmaceuticals Incorporated, priority 2010, dated 2014), this text covers Ki for one compound.

The structures appear in SMILES notation. pKi: −log10 of the molar value. Some results are limits rather than exact numbers.

The target in one assay is PKC theta kinase (Homo sapiens, UniProt Q04759). Description: PKC theta kinase coupled-enzyme (NADH consumption) inhibition assay. It is filed as biochemical. Particulars: 240 μM ATP, 18 nM PKC theta, 30° C. How it is done:
An assay buffer solution was prepared which consisted of 100 mM HEPES (pH 7.5), 10 mM MgCl2, 25 mM NaCl, 0.1 mM EDTA and 0.01% Brij. An enzyme buffer containing reagents to final assay concentrations of 0.00001% Triton X-100, 200 μg/mL Phosphatidylserine, 20 μg/mL Diacylglycerol, 360 μM NADH, 3 mM phosphoenolpyruvate, 70 μg/mL pyruvate kinase, 24 μg/mL lactate dehydrogenase, 2 mM DTT, 100 μM substrate peptide (ERMRPRKRQGSVRRRV SEQ ID NO. 1) and 18 nM PKC theta kinase was prepared in assay buffer. To 60 μL of this enzyme buffer, in a 384 well plate, was added 2 μL of VRT stock solution in DMSO. The mixture was allowed to equilibrate for 10 mins at 30° C. The enzyme reaction was initiated by the addition of 5 μL stock ATP solution prepared in assay buffer to a final assay concentration of 240 μM. Initial rate data was determined from the rate of change of absorbance at 340 nm (corresponding to stoichiometric consumption of NADH) using a Molecular Devices Spectramax plate reader (Sunnyvale, Calif.) over 15 mins at 30° C. For each Ki determination 12 data points covering the VRT concentration range of 0-20 μM were obtained in duplicate (DMSO stocks were prepared from an initial 10 mM VRT stock with subsequent 1:2 serial dilutions). Ki values were calculated from initial rate data by non-linear regression using the Prism software package (Prism 4.0a, Graphpad Software, San Diego, Calif.).

Another assay concerns the target PKC delta kinase (Homo sapiens, UniProt Q05655). The assay is described as follows: PKC delta kinase coupled-enzyme (NADH consumption) inhibition assay. Particulars: 150 μM ATP, 46 nM PKC delta, 30° C. The assay is classed as biochemical. How it is done: An assay buffer solution was prepared which consisted of 100 mM HEPES (pH 7.5), 10 mM MgCl2, 25 mM NaCl, 0.1 mM EDTA and 0.01% Brij. An enzyme buffer containing reagents to final assay concentrations of 0.002% Triton X-100, 200 μg/mL Phosphatidylserine, 20 μg/mL Diacylglycerol, 360 μM NADH, 3 mM phosphoenolpyruvate, 70 μg/mL pyruvate kinase, 24 μg/mL lactate dehydrogenase, 2 mM DTT, 150 μM substrate peptide (ERMRPRKRQGSVRRRV SEQ ID NO. 2) and 46 nM PKC delta kinase was prepared in assay buffer. To 16 μL of this enzyme buffer, in a 384 well plate, was added 1 μL of VRT stock solution in DMSO. The mixture was allowed to equilibrate for 10 mins at 30° C. The enzyme reaction was initiated by the addition of 16 μL stock ATP solution prepared in assay buffer to a final assay concentration of 150 μM. Initial rate data was determined from the rate of change of absorbance at 340 nm (corresponding to stoichiometric consumption of NADH) using a Molecular Devices Spectramax plate reader (Sunnyvale, Calif.) over 15 mins at 30° C. For each Ki determination 12 data points covering the VRT concentration range of 0-20 μM were obtained in duplicate (DMSO stocks were prepared from an initial 10 mM VRT stock with subsequent 1:2 serial dilutions). Ki values were calculated from initial rate data by non-linear regression using the Prism software package (Prism 4.0a, Graphpad Software, San Diego, Calif.).

Chain of PKC delta kinase (Q05655 whole entry): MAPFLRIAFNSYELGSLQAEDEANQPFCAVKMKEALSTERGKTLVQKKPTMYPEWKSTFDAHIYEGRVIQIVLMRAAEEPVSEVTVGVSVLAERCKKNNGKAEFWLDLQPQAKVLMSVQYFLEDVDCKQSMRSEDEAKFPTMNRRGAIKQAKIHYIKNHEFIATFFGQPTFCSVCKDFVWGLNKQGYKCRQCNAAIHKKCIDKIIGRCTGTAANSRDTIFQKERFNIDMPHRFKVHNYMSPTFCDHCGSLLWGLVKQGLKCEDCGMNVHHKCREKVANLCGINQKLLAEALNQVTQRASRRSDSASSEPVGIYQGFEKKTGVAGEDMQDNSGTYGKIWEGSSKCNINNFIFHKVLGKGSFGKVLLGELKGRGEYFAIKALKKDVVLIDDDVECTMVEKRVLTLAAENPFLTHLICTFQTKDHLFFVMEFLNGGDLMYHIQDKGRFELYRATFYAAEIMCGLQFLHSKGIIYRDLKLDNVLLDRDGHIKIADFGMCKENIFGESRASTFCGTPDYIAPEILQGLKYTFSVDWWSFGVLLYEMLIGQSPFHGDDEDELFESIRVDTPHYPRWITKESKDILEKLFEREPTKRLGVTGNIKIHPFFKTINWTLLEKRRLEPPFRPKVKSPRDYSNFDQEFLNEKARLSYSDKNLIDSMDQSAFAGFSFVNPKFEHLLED
Chain of PKC theta kinase (Q04759 whole entry): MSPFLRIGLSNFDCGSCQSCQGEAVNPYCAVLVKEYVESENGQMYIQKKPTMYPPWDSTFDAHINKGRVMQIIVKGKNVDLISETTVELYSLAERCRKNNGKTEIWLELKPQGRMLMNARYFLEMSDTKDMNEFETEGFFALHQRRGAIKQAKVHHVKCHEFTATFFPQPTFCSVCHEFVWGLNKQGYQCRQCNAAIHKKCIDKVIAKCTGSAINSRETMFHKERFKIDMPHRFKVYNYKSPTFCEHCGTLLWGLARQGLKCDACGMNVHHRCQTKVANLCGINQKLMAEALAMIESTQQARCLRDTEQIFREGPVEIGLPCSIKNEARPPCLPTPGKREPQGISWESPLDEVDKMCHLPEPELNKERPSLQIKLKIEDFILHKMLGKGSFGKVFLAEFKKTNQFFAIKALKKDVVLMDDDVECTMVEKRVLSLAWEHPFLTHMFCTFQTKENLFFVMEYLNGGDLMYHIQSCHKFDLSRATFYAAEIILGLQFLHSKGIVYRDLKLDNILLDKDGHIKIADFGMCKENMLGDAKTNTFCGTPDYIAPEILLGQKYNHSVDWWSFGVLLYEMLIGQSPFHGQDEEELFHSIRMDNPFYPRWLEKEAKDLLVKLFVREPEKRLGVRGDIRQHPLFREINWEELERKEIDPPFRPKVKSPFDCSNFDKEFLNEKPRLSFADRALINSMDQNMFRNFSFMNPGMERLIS

Regarding `c1cc(-c2n[nH]c3nccnc23)nc(N2CCNCC2)c1` [Compound 1, 3-(6-(piperazin-1-yl)pyridin-2-yl)-1H-pyrazolo[3,4-b]pyrazine], the pKi at PKC theta kinase is more than 5.55; at PKC delta kinase it was less than 5.90.

One may read the pKi as the Ki on a negative log10 scale, so that one unit is a factor of ten.
